pEC50: −log10 of the molar value. Like-named read-outs stand apart in the source and are kept apart here.
Key:
[1] = system: HBeAg in HBV-infected HepG2-NTCP cells; experiment: microbe, parasite or virus in culture; type: cell-based, Hepatitis B virus genotype D (AD38); settings: read-out: HBeAg, EC50
Procedure: (§1) Production of wild-type HBV virions from HepAD38 cells was performed as previously described. HepG2-NTCP cells were bulk plated on collagen coated flasks at a density of 6x10^6 cells/ T175 flask. Following a 3-day incubation at 37°C, cells were infected with genotype D (AD38) virus at […] in the presence of 4% PEG8000 and 2.5% DMSO. HepG2-NTCP cells were washed 3 times with OPTI-MEM and maintained in Dulbecco’s modified Eagle’s medium (DMEM) supplemented with 2% FBS and 2.5% DMSO for the following 4 days. HBV-infected HepG2-NTCP cells were trypsinized, resuspended in DMEM supplemented with 2% FBS and 1% DMSO, and seeded onto serially diluted small molecule inhibitors at a 0.5% final DMSO concentration (S1 Table) in 384-well collagen coated plates at a density of 20,000 cells/well for 3 additional days.
(§2) Cell culture supernatant (3 μL) was transferred to two 1536-well plates and HBsAg and HBeAg levels subsequently measured by HTRF (Cisbio). HBsAg was measured using Terbium conjugated (XTL-17) and D2 receptor conjugated (XTL19) anti-HBsAg antibodies, while HBeAg was measured using Terbium conjugated (GWB-F19420, Genway Biotech) and D2 receptor conjugated (GWB-24DEF, Genway Biotech) anti-HBeAg antibodies. […] was measured using an Envision plate reader at emissions of 665 nm and 615 nm. The ratio of 665/615 was used to plot compound dose response curves and EC50 values were calculated from the fit of the dose−response curves to a four-parameter equation.
(§3) (A) Schematic overview of the pathways involved in lipid biosynthesis, such as DNL, TG esterification and cholesterol biosynthesis. […] (B-D) HepG2-NTCP cells infected with HBV for three days were treated with selected compounds in an eight-point dose response. After three days of treatment, extracellular HBsAg and HBeAg levels as well as cell viability were measured.

[2] = system: HBsAg secretion in HBV-infected HepG2-NTCP cells; experiment: microbe, parasite or virus in culture; type: cell-based, Hepatitis B virus genotype D (AD38); settings: for inhibition of HBsAg secretion: maximal (up to); for pEC50: read-out: HBsAg, EC50
Procedure: as §1, §2, §3

[3] = system: HBV-infected HepG2-NTCP cells; experiment: Cell viability by CellTiter Glo; type: cell-based, human; settings: three days of treatment
Procedure: as §1
(§4) Cells were analyzed for cell viability by addition of CellTiter Glo (Promega) to the assay plates and analyzed using an Envision plate reader (Perkin Elmer). CC50 values were calculated from the fit of the dose−response curves to a four-parameter equation. All CC50 values represent geometric mean values of a minimum of four determinations.
as §3

[4] = system: HBV genotype C; experiment: ACC inhibitor efficacy study in HBV-infected chimeric humanized mice: serum viral markers; type: in vivo, human liver-chimeric uPA/SCID mice; settings: 10 mg/kg oral once daily for four weeks, throughout the study
Procedure: (§5) For the ACC inhibitor efficacy study, HBV-infected mice were randomized into two different treatment groups based on body weight, blood h-Alb, and serum HBV DNA concentrations. All mice had blood h-Alb levels above 12 mg/mL and serum HBV DNA levels above 2.5x10^7 copies/mL. Mice received an oral dose of 10 mg/kg ACC inhibitor or dosing vehicle (vehicle control) once daily for 29 days. ACC inhibitor was dosed in 0.5% sodium carboxymethylcellulose (medium viscosity), 1% w/v ethanol, 98.5% w/v 50 mM Tris buffer, pH 8 in reverse osmosis water (or equivalent). Terminal livers were collected, weighed, and separated into pieces that were flash frozen in liquid nitrogen or immersed in RNAlater solution (Life Technologies, Carlsbad, CA).
(§6) Whole blood h-Alb was determined using (BioMajestyTM Series JCA-BM6050, JEOL Ltd., Tokyo, Japan). Serum human alanine aminotransferase (h-ALT1) concentration was determined based on Enzyme-Linked ImmunoSorbent Assay (ELISA) developed by Institute of Immunology Co., Ltd. (Tokyo, Japan). […] Serum HBsAg and HBeAg concentration were determined by SRL, Inc. (Tokyo, Japan) based on Chemiluminescent Enzyme Immuno Assay (CLEIA) developed by Fujirebio. […] RNA was isolated from RNAlater®-immersed liver samples with RNeasy kit following manufacturer’s instructions (Qiagen). qRT-PCR on the targeted genes was evaluated by Taqman (Assay IDs Hs04984975_m1 (SREBF1), Hs01682761_m1 (SCD), Hs01005622_m1 (FASN), Hs01046047_m1 (ACACA) and normalized to GAPDH endogenous control (Assay ID 4310884E).
(§7) Using the same batch of human hepatocytes and HBV virus used for the metabolomic and RNAseq analyses, mice (n = 7/group) were dosed orally eight weeks post HBV infection with vehicle or 10 mg/kg ACC inhibitor once daily for four weeks. HBV viral markers (HBsAg, HBeAg, and HBV DNA) and liver toxicity markers (ALT, h-Alb) were measured weekly (Fig 5A). On-target activity was evaluated by monitoring changes in triglycerides and liver mRNA expression levels of genes in the targeted pathway (Fig 5A).

[5] = two hours post dosing
Procedure: as §5, with “Terminal livers were collected, weighed, and separated into pieces that were flash frozen in liquid nitrogen or immersed in RNAlater solution (Life Technologies, Carlsbad, CA).” left out
as §6

[6] = system: ACC; experiment: On-target activity: serum and liver triglycerides and liver mRNA by qRT-PCR; type: in vivo, human liver-chimeric uPA/SCID mice; settings: 10 mg/kg oral once daily, versus vehicle
Procedure: as §5
Whole blood h-Alb was determined using (BioMajestyTM Series JCA-BM6050, JEOL Ltd., Tokyo, Japan). Serum human alanine aminotransferase (h-ALT1) concentration was determined based on Enzyme-Linked ImmunoSorbent Assay (ELISA) developed by Institute of Immunology Co., Ltd. (Tokyo, Japan). The real-time detection PCR to measure the serum HBV DNA concentration was performed using the KUBIX HBV qPCR Kit (KUBIX Inc.) and CFX96 Touch™ Real-Time PCR Detection System. […] Serum HBsAg and HBeAg concentration were determined by SRL, Inc. (Tokyo, Japan) based on Chemiluminescent Enzyme Immuno Assay (CLEIA) developed by Fujirebio. Serum and intrahepatic triglycerides analysis were performed by Skylight Biotech Inc. (Akita, Japan). Terminal plasma and liver were collected 2-hours after ACC inhibitor dose for PK analysis which was performed by Charles River Laboratories (Wilmington, MA). RNA was isolated from RNAlater®-immersed liver samples with RNeasy kit following manufacturer’s instructions (Qiagen). qRT-PCR on the targeted genes was evaluated by Taqman (Assay IDs Hs04984975_m1 (SREBF1), Hs01682761_m1 (SCD), Hs01005622_m1 (FASN), Hs01046047_m1 (ACACA) and normalized to GAPDH endogenous control (Assay ID 4310884E).
as §7

[7] = type: in vivo, human liver-chimeric uPA/SCID mice; settings: 10 mg/kg oral once daily for four weeks
Procedure: All animal work was performed by PhoenixBio Co, Ltd (Higashi-Hiroshima City, Japan). Detailed observations of general condition and individual body weights were conducted once daily throughout the in-life phase. All animal protocols were performed in accordance with the Guide for the Care and Use of Laboratory Animals and approved by the Animal Welfare Committee of Phoenix Bio Co., Ltd. All mice were housed individually and maintained in accordance with the Animal Ethics Committee of PhoenixBio (resolution #2518 and 2552). All surgery was performed under isoflurane anesthesia, and all efforts were made to minimize suffering. On Day 17, Animal ID No. 107 (vehicle-treated) was found dead.

[8] = system: DNL in HepG2 cells; parameters: method as in PMID 32376414, doi:10.1002/hep.31579; settings: cited from earlier work
[9] = system: triglyceride accumulation in HepG2 cells; parameters: method as in PMID 32376414, doi:10.1002/hep.31579; settings: read-out: palmitic acid-induced triglyceride accumulation EC50; cited from earlier work
[10] = Cell viability by CellTiter Glo; type: cell-based, human; settings: human; HBV-infected HepG2-NTCP cells, three days of treatment
Procedure: as §1, §4, §3

[11] = system: ACC1 and ACC2; parameters: method as in PMID 29705265, PMID 30059671; settings: cited from earlier work
[12] = system: HBsAg secretion in Hep3B cells; parameters: method as in PMID 14517078; settings: depletion of cellular cholesterol; cited from earlier work
[13] = HBV-infected HepG2-NTCP cells, three days of treatment, extracellular

With `COc1ccccc1[C@H](Cn1c(=O)n(C(C)(C)C(=O)O)c(=O)c2c(C)c(-c3ncco3)sc21)O[C@H]1CC[C@@H](O)CC1` [ACC inhibitor, 2-(1-((R)-2-(((1s,4S)-4-hydroxycyclohexyl)oxy)-2-(2-methoxyphenyl)ethyl)-5-methyl-6-(oxazol-2-yl)-2,4-dioxo-1,4-dihydrothieno[2,3-d]pyrimidin-3(2H)-yl)-2-methylpropanoic acid] the pEC50 [1, 13] was 5.02, the “selectivity HBsAg versus HBeAg” value ([2]; HBV-infected HepG2-NTCP cells) was “inhibition of HBeAg but at a higher concentration than HBsAg” and the “inhibition of HBsAg secretion” value ([2]; HBV-infected HepG2-NTCP cells) was “up to 80%”. For the same molecule, the pEC50 [2, 13] was 7.54, the CC50 [3] was > 10 µM and the “reduction in serum HBV DNA levels” value [4] was “no reduction”. The “reduction in serum HBeAg levels” value [4] was “no reduction”, the “reduction in serum HBsAg levels” value [4] was “no reduction” and the “Liver exposure over protein-adjusted EC50 (paEC50)” value ([5]; paEC50 based on HepG2-serum free-DNL assay) was 4.5 fold. The Liver exposure ([5]; 10 mg/kg oral once daily, HBV-infected chimeric humanized mice) was 740 nM, the “increase in serum triglycerides” value ([6]; day 17 of treatment) was 30% and the “reduction in liver triglycerides” value ([6]; day 29 of treatment) was 40%. The “liver mRNA expression level of ACACA” value ([6]; qRT-PCR) was “statistically significant increase”, the “liver mRNA expression level of FASN” value ([6]; qRT-PCR) was “statistically significant increase” and the “liver mRNA expression level of SCD” value ([6]; qRT-PCR) was “statistically significant increase”. For the same molecule, the “liver mRNA expression level of SREBF1” value ([6]; qRT-PCR) was “increased with ACC treatment albeit did not reach statistical significance”, the “toxicity based on body weight change, serum ALT, and h-Alb levels” value [7] was “no evidence of toxicity” and the pEC50 [8] was 8.18. For the same molecule, the pEC50 [9] was 7.64.

In the case of `C=C(C)[C@@H]1CC[C@]2(CO)CC[C@]3(C)[C@H](CC[C@@H]4[C@@]5(C)CC[C@H](O)C(C)(C)[C@@H]5CC[C@]43C)[C@@H]12` [Betulin, (1R,3aS,5aR,5bR,7aR,9S,11aR,11bR,13aR,13bR)-3a-(hydroxymethyl)-5a,5b,8,8,11a-pentamethyl-1-(prop-1-en-2-yl)icosahydro-1H-cyclopenta[a]chrysen-9-ol], the pEC50 ([1]; Hepatitis B virus, 72 h) was < 5.00, the pEC50 ([2]; Hepatitis B virus, 72 h) was < 5.00 and the CC50 at 3 days [10] was > 10 µM.

With `CCOC(=O)[C@@]1(CCCCCCOc2ccc(Cl)cc2)CO1` [Etomoxir, ethyl (R)-2-(6-(4-chlorophenoxy)hexyl)oxirane-2-carboxylate] the pEC50 ([1]; Hepatitis B virus, 72 h) was < 5.00, the pEC50 ([2]; Hepatitis B virus, 72 h) was < 5.00 and the CC50 at 3 days [10] was > 10 µM.

For `COc1ccccc1[C@H](Cn1c(=O)n(C(C)(C)C(=O)O)c(=O)c2c(C)c(-c3ncco3)sc21)OC1CCOCC1` [FIR, Firsocostat], the liver fat reduction ([11]; observed clinically) is given as ~ 30% and the DNL inhibition ([11]; partial target inhibition observed clinically) is given as ~ 70%.

With `CCCCCCCCc1ccc(CCC(N)(CO)CO)cc1` [FTY720, 2-amino-2-(4-octylphenethyl)propane-1,3-diol] the pEC50 ([1]; Hepatitis B virus, 72 h) was < 5.00, the pEC50 ([2]; Hepatitis B virus, 72 h) was < 5.00 and the CC50 at 3 days [10] was > 10 µM.

For `CCCc1cc(-c2nc(-c3ccc(C)cc3)cs2)ccn1` [Fatostatin, 2-(2-propylpyridin-4-yl)-4-(p-tolyl)thiazole], the pEC50 ([1]; Hepatitis B virus, 72 h) was < 5.00, the pEC50 ([2]; Hepatitis B virus, 72 h) was < 5.00 and the CC50 at 3 days [10] was > 10 µM.

In the case of `O=C(O)C[C@H]1CC[C@H](c2ccc(-c3ccc(Nc4ccc(C(F)(F)F)nc4)cn3)cc2)CC1` [Pradagilast, 2-((1r,4r)-4-(4-(5-((6-(trifluoromethyl)pyridin-3-yl)amino)pyridin-2-yl)phenyl)cyclohexyl)acetic acid], the pEC50 ([1]; Hepatitis B virus, 72 h) was < 5.00, the pEC50 ([2]; Hepatitis B virus, 72 h) was < 5.00 and the CC50 at 3 days [10] was > 10 µM.

For `CCCCCCCCCCCCCCCCCCCC(=O)N[C@H]1CC[C@@]2(C)[C@@H](C1)C[C@@H](O)[C@@H]1[C@@H]2C[C@H](O)[C@]2(C)[C@@H]([C@H](C)CCC(=O)O)CC[C@@H]12` [SCD1 Inhibitor, (R)-4-((3S,5S,7R,8R,9S,10S,12S,13R,14S,17R)-7,12-dihydroxy-3-icosanamido-10,13-dimethylhexadecahydro-1H-cyclopenta[a]phenanthren-17-yl)pentanoic acid], the pEC50 [1, 13] was < 5.00, the pEC50 [2, 13] was < 5.00 and the CC50 [3] was > 10 µM.

In the case of `CCN(CC)Cc1ccc(C(=O)N(CCc2ccccc2OC)[C@@H]2CCNC2)cc1` [SKI-1/S1P inhibitor, (R)-4-((diethylamino)methyl)-N-(2-methoxyphenethyl)-N-(pyrrolidin-3-yl)benzamide], the pEC50 [1, 13] was < 5.00, the “selectivity HBsAg versus HBeAg” value ([2]; HBV-infected HepG2-NTCP cells) was “selective for HBsAg” and the “inhibition of HBsAg secretion” value ([2]; HBV-infected HepG2-NTCP cells) was “up to 80%”. For the same molecule, the pEC50 [2, 13] was 6.10 and the CC50 [3] was > 10 µM.

For `Oc1ccc(Nc2nc(-c3ccc(Cl)cc3)cs2)cc1` [SKI-II, 4-((4-(4-chlorophenyl)thiazol-2-yl)amino)phenol], the pEC50 ([1]; Hepatitis B virus, 72 h) was < 5.00, the pEC50 ([2]; Hepatitis B virus, 72 h) was 5.05 and the CC50 at 3 days [10] was > 10 µM.

In the case of `CC[C@H](C)C(=O)O[C@H]1C[C@@H](C)C=C2C=C[C@H](C)[C@H](CC[C@@H]3C[C@@H](O)CC(=O)O3)[C@H]21` [lovastatin], the HBsAg secretion [12] is listed as “significantly reduced”.
